Patent publication US11135193B2, “Composition containing monoacetyldiacylglycerol compound as active ingredient for preventing or treating asthma” (Enzychem Lifesciences Corporation, priority 2013, dated 2021)
Where two headings read alike, the source gives them in different places. Marks after values point to notes of the source that are not given here.

Legend:
EL-4 cells [1] = test: Cytotoxicity of monoacetyldiacylglycerol compounds in EL-4 cells (CCK-8 cell viability); details: 24 hours
Protocol: (§2) EL-4 cells that are mouse T lymphoma cells were suspended in 10% fetal bovine serum-containing RPMI medium (Gibco) at a concentration of 5×10^4 cells/ml, and 100 μl of the cell suspension was seeded into each well of a 96-well plate and cultured for 12 hours. Next, the cell culture was treated with monoacetyldiacylglycerol (MADG) compounds at the concentrations shown in Table 1 below, and was then additionally cultured for 24 hours. Next, according to the instruction provided in a CCK-8 kit (Dojindo) capable of counting cells, 10 μl of CCK-8 solution was added to the kit and allowed to react for 30 minutes to 4 hours, and then the absorbance (OD) at 570 nm was measured. In equation 1, the negative control group indicates a cell culture treated with 0.2% DMSO. […] Cell viability (%)=[(OD 570 nm value of MADC-treated group)/(OD 570 nm value of negative control group)]×100 Equation 1

IL-4 mRNA = test: Inhibition of PMA-induced expression of IL-4 mRNA in EL-4 cells (PCR); type: cell-based, mouse; details: 20 μg/mL, PMA 1 ng/mL; for Inhibition (%) of IL-4 mRNA expression: compared to PMA-treated group
Protocol: Based on the results of Example 1, each of the monoacetyldiacylglycerol compounds was added to EL-4 cells at a concentration of 20 μg/mL, and the effect thereof on the inhibition of PMA-induced expression of IL-4 mRNA in the EL-4 cells was measured. Specifically, the expression level of IL-4 mRNA induced by PMA (1 ng/mL) was measured using real-time polymerase chain reaction (real-time PCR) and quantitative real time polymerase chain reaction (qPCR). For cell preparation, EL-4 cells were seeded into a 6-well plate at a concentration of 1×10^6 cells/well and cultured for 12 hours, after which the cells were treated with each of the monoacetyldiacylglycerol compounds at a concentration of 20 μg/mL for 1 hour and treated with PMA at a concentration of 1 ng/ml, followed by culture for 12 hours. Total RNA was extracted from the cells using Trizol B (Invitrogen, USA) and quantified, and then cDNA was synthesized from the total RNA using an Omniscript RT kit (Qiagen, GmbH, Hilden, Germany). The synthesized cDNA as a template was mixed with each of the IL-4 and GAPDH primers shown in Table 2 below and was subjected to PCR using a PCR mix (PCR Master Mix, Bioneer, Korea) under the following conditions: denaturation at 94° C. for 5 minutes; and then 30 cycles, each consisting of 30 sec at 95° C., 45 sec at 60° C., and 45 sec at 72° C.; followed by enzyme inactivation at 72° C. for 10 minutes. The results of measuring the percent inhibition of expression of IL-4 mRNA in EL-4 cells as described above are shown in Table 3 below. The designation of each of the samples shown in Table 3 below is as described with respect to Table 1 above.

[2] = test system: ovalbumin-induced asthma Balb/c mice; test: Inflammatory cell count in bronchoalveolar lavage fluid, ovalbumin-induced asthma model; type: in vivo, mouse; details: BALF; 30 mg/kg oral
Protocol: (§1) 6-week-old female SPF (specific pathogen-free) Balb/c mice (average weight: 20 g) were purchased from Samtako (Korea). The animals were sufficiently fed with solid feed (antibiotic-free, Samyang Feed Co.) and water until the start point of the experiment, and acclimated at a temperature of 22±2° C., a humidity of 55±15%, and a 12-hr light/12-hr dark cycle for 1 week, and then used in experiments. After 1 week of the acclimation period as described above, the mice were sensitized by intraperitoneal administration of a suspension of 2 mg of aluminum oxide (A8222, Sigma-Aldrich, MO, USA) and 20 μg of ovalbumin (A5503, Sigma-Aldrich) in 200 μl of phosphate buffered saline at two-week intervals. During a period from day 21 to day 23 after the first intraperitoneal administration of ovalbumin, 1% ovalbumin was inhaled into the mice for 30 minutes using an ultrasonic nebulizer (NE-U12, Omron Corp., Japan). At 24 hours after the last ovalbumin challenge, the airway hyperresponsiveness of the mice was measured, and after 48 hours, the mice were anesthetized by intraperitoneal administration of Pentobarbital (50 mg/kg, Entobal, Hanil, Korea). Then, blood was collected through the saphenous vein, and the mice were subjected to tracheostomy. Next, each of the mice was subjected to bronchoalveolar lavage with a total of 1.4 ml of PBS to collect an analytical sample. […] The drug and the sample were administered orally during a period from day 18 to day 23 after the first ovalbumin […] (FIG. 1). Seven mice were used per group.
An increase in the number of eosinophils is one of the major features of asthma. Thus, in order to measure the number of eosinophils, the following experiment was performed. The bronchoalveolar lavage fluid from each mouse was stained with trypan blue immediately after collection, and the number of total cells (excluding dead cells) was calculated using a hemocytometer.

[3] = test system: serum IgE and ovalbumin-specific IgE; test: Serum IgE and ovalbumin-specific IgE (ELISA), ovalbumin-induced asthma model; type: in vivo, mouse; details: 30 mg/kg oral
Protocol: as §1
The blood collected through the saphenous vein was incubated at room temperature for 30 minutes, and then centrifuged (3000 rpm, 15 min) to obtain serum. For measurement of serum IgE and ovalbumin-specific IgE, ELISA was used. IgE was measured using commercially available IgE (Biolegend Ins., USA). For measurement of ovalbumin-specific IgE, in a 96-well flat bottom ELISA plate, ovalbumin was dissolved in 0.1 M NaHCO3 buffer (pH 8.3) at a concentration of 20 μg/mL and incubated at 4° C. for 16 hours. Next, PBS containing 1% bovine serum albumin (BSA) was added to suppress nonspecific reactions. The serum sample was diluted at 1:400, allowed to react at room temperature for 2 hours, and then washed with PBS containing 0.05% Tween 20. Horseradish peroxidase (HRP)-conjugated goat […] polyclonal A was diluted 4000-fold and allowed to react at room temperature for 1 hour, and then color development was performed using 3,3′5,5′-tetramethylbenzidine substrate.

[4] = test system: ovalbumin-induced asthma Balb/c mice; test: Airway hyperresponsiveness (Pehn, plethysmography) in ovalbumin-induced asthma model; type: in vivo, mouse; details: 30 mg/kg oral
Protocol: as §1
To measure airway hyperresponsiveness that is one of the major features of asthma, one chamber plethysmography (All Medicus, Korea) was used. The degree of airway resistance was evaluated by measuring enhanced pause (Pehn). For measurement of Pehn, the basis value was measured in a normal breathing state, and then PBS was inhaled for 3 minutes using an ultrasonic nebulizer, after which the Pehn value was measured for 3 minutes.

[5] = test system: interleukins (IL-4, IL-5 and IL-13); test: Th2 cytokines in bronchoalveolar lavage fluid (ELISA), ovalbumin-induced asthma model; type: in vivo, mouse; details: BALF; 30 mg/kg oral
Protocol: as §1
The production of interleukins (IL-4, IL-5 and IL-13) in the bronchoalveolar lavage fluid isolated from each mouse was measured using a commercially available enzyme-linked immunosorbent assay (ELISA) kit (R&D System, USA). The analysis of each cytokine was performed according to the manufacturer's instruction, and the absorbance at 450 nm was measured using an ELISA reader (Molecular Devices, USA).

EL-4 cells [6] = details: mouse, 24 h
Protocol: as §2

SMILES: CCCCC/C=C\C/C=C\CCCCCCCC(=O)OCC(COC(C)=O)OC(=O)CCCCCCCCCCCCCCC (stereo not drawn) [LPAG, 1-linoeoyl-2-palmitoyl-3-acetylglycerol]
- EL-4 cell viability (%, mean ± SD) (EL-4 cells [1]; 5 μg/ml): 99.67 ± 1.15%
- EL-4 cell viability (%, mean ± SD) (EL-4 cells [1]; 10 μg/ml): 98.91 ± 0.50%
- EL-4 cell viability (%, mean ± SD) (EL-4 cells [1]; 20 μg/ml): 99.13 ± 1.18%
- Expression level of IL-4 mRNA (percentage relative to PMA-treated group) (IL-4 mRNA): 61.11 ± 27.49%
- Inhibition (%) of IL-4 mRNA expression (IL-4 mRNA): 38.89%

SMILES: CCCCC/C=C\C/C=C\CCCCCCCC(=O)OCC(COC(C)=O)OC(=O)CCCCCCCCCCCCCCCCC (stereo not drawn) [LSAG, 1-linoeoyl-2-stearoyl-3-acetylglycerol]
- EL-4 cell viability (%, mean ± SD) (EL-4 cells [1]; 5 μg/ml): 103.82 ± 1.80%
- EL-4 cell viability (%, mean ± SD) (EL-4 cells [1]; 10 μg/ml): 101.85 ± 1.00%
- EL-4 cell viability (%, mean ± SD) (EL-4 cells [1]; 20 μg/ml): 98.15 ± 1.82%
- Expression level of IL-4 mRNA (percentage relative to PMA-treated group) (IL-4 mRNA): 41.62 ± 17.61%
- Inhibition (%) of IL-4 mRNA expression (IL-4 mRNA): 58.38%

SMILES: CC(C)(O)c1ccccc1CC[C@@H](SCC1(CC(=O)O)CC1)c1cccc(/C=C/c2ccc3ccc(Cl)cc3n2)c1 [Mon, montelukast, reference compound]
- Inflammatory cell number, Eosinophils [2]: 54 ± 17.8* 10^5 per mouse
- Inflammatory cell number, Lymphocytes [2]: 11 ± 10.6 10^5 per mouse
- Inflammatory cell number, Macrophages [2]: 99 ± 21.4* 10^5 per mouse
- Inflammatory cell number, Neutrophils [2]: 14 ± 5.2 10^5 per mouse
- Inflammatory cell number, Total cells [2]: 179 ± 44.0* 10^5 per mouse
- IgE [3]: 2.03 ± 0.49 µg/mL
- OVA specific IgE [3]: 198.15 ± 42.65 µg/mL
- Pehn value ([4]; methacholine 0 mg/mL): 0.590 ± 0.07
- Pehn value ([4]; methacholine 12.5 mg/mL): 1.261 ± 0.29
- Pehn value ([4]; methacholine 25 mg/mL): 3.046 ± 0.61
- Pehn value ([4]; methacholine 50 mg/mL): 4.182 ± 0.99
- Th2 cytokines, IL-4 [5]: 18.69 ± 3.00 pg/mL
- Th2 cytokines, IL-5 [5]: 22.74 ± 3.59 pg/mL
- Th2 cytokines, IL-13 [5]: 81.42 ± 25.59 pg/mL

SMILES: CCCCCCCC/C=C\CCCCCCCC(=O)OCC(COC(C)=O)OC(=O)CCCCCCCCCCCCCCC (stereo not drawn) [OPAG, 1-oleoyl-2-palmitoyl-3-acetylglycerol]
- EL-4 cell viability (%, mean ± SD) (EL-4 cells [6]; 5 μg/ml): 98.04 ± 0.94%
- EL-4 cell viability (%, mean ± SD) (EL-4 cells [6]; 10 μg/ml): 98.91 ± 1.68%
- EL-4 cell viability (%, mean ± SD) (EL-4 cells [6]; 20 μg/ml): 99.56 ± 2.86%

SMILES: CCCCCCCC/C=C\CCCCCCCC(=O)OCC(COC(C)=O)OC(=O)CCCCCCCCCCCCCCCCC (stereo not drawn) [OSAG, 1-oleoyl-2-stearoyl-3-acetylglycerol]
- EL-4 cell viability (%, mean ± SD) (EL-4 cells [6]; 5 μg/ml): 102.62 ± 2.18%
- EL-4 cell viability (%, mean ± SD) (EL-4 cells [6]; 10 μg/ml): 100.98 ± 2.37%
- EL-4 cell viability (%, mean ± SD) (EL-4 cells [6]; 20 μg/ml): 100.22 ± 0.68%

SMILES: CCCCCCCC/C=C\CCCCCCCC(=O)OC(COC(C)=O)COC(=O)CCCCCCCCCCCCCCC (stereo not drawn) [POAG, 1-palmitoyl-2-oleoyl-3-acetylglycerol]
- EL-4 cell viability (%, mean ± SD) (EL-4 cells [6]; 5 μg/ml): 106.94 ± 2.69%
- EL-4 cell viability (%, mean ± SD) (EL-4 cells [6]; 10 μg/ml): 106:39 ±1.19%
- EL-4 cell viability (%, mean ± SD) (EL-4 cells [6]; 20 μg/ml): 98.90 ± 1.16%

SMILES: CCCCCCCCCCCCCCCC(=O)OCC(COC(C)=O)OC(=O)CCCCCCCCCCCCCCC (stereo not drawn) [PPAG, 1-palmitoyl-2-palmitoyl-3-acetylglycerol]
- EL-4 cell viability (%, mean ± SD) (EL-4 cells [6]; 5 μg/ml): 106.28 ± 1.39%
- EL-4 cell viability (%, mean ± SD) (EL-4 cells [6]; 10 μg/ml): 105.84 ± 1.38%
- EL-4 cell viability (%, mean ± SD) (EL-4 cells [6]; 20 μg/ml): 96.59 ± 0.69%

SMILES: CCCCCCCCCCCCCCCCCC(=O)OC(COC(C)=O)COC(=O)CCCCCCCCCCCCCCC (stereo not drawn) [PSAG, 1-palmitoyl-2-stearoyl-3-acetylglycerol]
- EL-4 cell viability (%, mean ± SD) (EL-4 cells [6]; 5 μg/ml): 98.46 ± 0.33%
- EL-4 cell viability (%, mean ± SD) (EL-4 cells [6]; 10 μg/ml): 100.66 ± 1.25%
- EL-4 cell viability (%, mean ± SD) (EL-4 cells [6]; 20 μg/ml): 103.30 ± 2.15%
